Data reported in patent publication US20200253914A1, “NOVEL FORMULATIONS” (priority 2015, published 2020).
Read-outs that look alike come from different tables or passages of the source.

How the values were obtained:
HaCaT cells = experiment: HaCaT cell viability assay for skin irritancy potential; format: cell-based
Method: Irritancy potential of the individual surfactants as well as formulation chassis (placebo formulations) were evaluated using an in house in vitro test. The method utilizes HaCaT cell viability as a marker for irritation.
Briefly, HaCaT cells were seeded in 96-well plates (Nunc 96 well plate, Cat #165305) at density of 2×10^4 cells per well, and grown overnight before treatments. Test articles were diluted in water to make 10% stock solutions, which were serially diluted in DMEM to twice to the final treatment concentrations. Cells were treated in triplicates by adding 100 μl of serially diluted test articles to each well containing 100 μl fresh medium. After incubation at 37° C., 5% CO2 for 10 minutes in the presence of diluted placebos, cells were then washed with 200 μl of DPBS with Ca^++ and Mg^++ (Life Technologies #14040133) for 3 times. CellTiter-Blue reagent (Promega, G8081, 10× stock solution) was diluted to 1× working solution in cell culture medium and added to cells (100 μl/well). Cells were incubated at 37° C., 5% CO2 for 60 minutes and the cell viability was measured using fluorescent activity (Ex. 560 nm, Em. 590 nm). All treated samples were normalized to the untreated control. Cell viabilities were then used to assess skin irritation potential.
Cell viability studies were conducted to assess the skin irritation of the formulations using Neutrogena Ultra Gentle Daily Cleanser and PanOxyl 10 (Placebo) as the comparators. The results are shown in FIG. 2 for the 2.5% BPO formulations and FIG. 3 for the 10% BPO formulations. Sodium Lauryl […] (SLS) was used as the positive control. […] All 6 formulations outperformed Neutrogena Ultra Gentle with formulation #3(2.5%) being more than 3 fold milder than Neutrogena Ultra Gentle cleanser. The 2.5% prototypes were slightly milder than the 10% formulations. This is expected due to higher concentration of the surfactants in the 10% formulations.

[1] = BPO chemical stability in wash formulations and shelf life prediction; format: physicochemical; details: increasing sorbitol concentrations in wash formulations
Method: BPO stability in the formulations of the present invention were assessed over time at 25° C./60% RH and 30° C./65% RH using environmentally controlled chambers. Specifically formulations containing 2.5% BPO or 10% BPO in glass vials were placed on stability, and monitored for BPO degradation.
Chemical stability of the BPO in surfactant based wash products is a challenge due to increased solubility of the BPO in these systems.

[2] = in water and propylene glycol, after 90 days of storage; cited from earlier work
[3] = HaCaT cell viability, 10 minutes treatment, left = mildest, SLS positive control

| Compound | rank order of screened surfactants for mildness, based on EC 50 values (HaCaT cells; [3]) | other results |
| --- | --- | --- |
| Cocamidopropyl PG-Dimonium Chloride Phosphate [Cola Lipid C] | > SLS |  |
| Sodium Laurylglucoside Hydroxypropylsufonate [Suganate 160 NC] |  | rank order of screened surfactants for mildness, based on EC 50 values (HaCaT cells): > Plantaren 2000 N UP |
| OC[C@@H](O)[C@@H](O)[C@H](O)[C@@H](O)CO [sorbitol, D-Sorbitol] |  | effect of humectant on BPO stability (benzoic acid generated) [1]: improve BPO stability |
| CCCCCCCCCCO[C@@H]1O[C@H](CO)[C@@H](O)[C@H](O)[C@H]1O [Plantaren 2000 N UP, decyl glucoside] | > Colonial AOS |  |
| O=C(OOC(=O)c1ccccc1)c1ccccc1 [BPO, Benzoyl peroxide] |  | degradation of benzoyl peroxide in suspension (dispersed form) [2]: not degraded |
| Sodium C14-C17 sec-alkyl sulfonate [Hostapur SAS 60] | SLS |  |
| sodium C14-16 Olefin sulfonate [Colonial AOS] | > Cola Lipid C |  |
| Sodium Hydroxyethylglycinate cocoglucoside crosspolymer and sodium bis-hydroxytethylglycinate lauryl glucoside crosspolymer [PolySuga Glycinate C] |  | rank order of screened surfactants for mildness, based on EC 50 values (HaCaT cells): > PolySuga Phos 1200P |
